Test results taken from PMC8162404, “Proteomimetic surface fragments distinguish targets by function” (Chemical Science, 2020).

Assays:
Gal-1 = molecular target: T1, Gal-1 (Homo sapiens, UniProt P09382); assay: Pull-down assay with immobilized protein and LSM libraries; format: binding; conditions: H12 library; 1:1 binding assumed; read-out: Surface mapping KD (apparent)
T1 construct: made in house; host or cells: E. coli BL21(DE3)
Procedure, shortened: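 His-tagged protein immobilized on Co-NTA resin (64 µM) in 20 mM HEPES pH 7.4, 150 mM NaCl, equilibrated 30 min at room temperature with foldamer LSM sublibraries at equimolar total concentration. Unbound fractions quantified by HPLC-MS versus protein-free resin control; apparent KD assumes 1:1 binding.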

S100B = molecular target: T2, S100B (Homo sapiens, UniProt P04271); assay: as above; format: binding; conditions: H12 library; 1:1 binding assumed; read-out: Surface mapping KD (apparent)
T2 construct: made in house; host or cells: Escherichia coli BL21(DE3)
T2 sequence (P04271 1-92): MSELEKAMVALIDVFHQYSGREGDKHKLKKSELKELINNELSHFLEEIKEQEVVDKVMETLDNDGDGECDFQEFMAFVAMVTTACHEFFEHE
Procedure, shortened: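 Buffers were HEPES pH 7.4 with 150 mM NaCl, plus 1 mM TCEP and 1 mM CaCl2 (50 mM HEPES) for S100A4 and S100B, 1 mM TCEP for Gal-1, and no additive for RecQ-WH. Immobilized protein at 64 µM was equilibrated 30 min with the LSM sublibrary, and unbound probes were measured by LC-MS.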

T1 sequence (P09382 whole entry): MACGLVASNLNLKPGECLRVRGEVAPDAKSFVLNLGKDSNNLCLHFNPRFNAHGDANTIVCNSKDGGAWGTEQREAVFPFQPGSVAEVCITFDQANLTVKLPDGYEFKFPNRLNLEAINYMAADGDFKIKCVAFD

Compound | Kd (Gal-1) [µM] | Kd (S100B) [µM]
CSCC[C@@H](CC(=O)N[C@H]1CCC[C@@H]1C(=O)N[C@H]1CCC[C@@H]1C(=O)N[C@@H](CC(=O)O)CC(=O)N[C@H]1CCC[C@@H]1C(=O)N[C@H]1CCC[C@@H]1C(N)=O)NC(=O)[C@H]1CCC[C@@H]1NC(=O)[C@H]1CCC[C@@H]1N [H12 MD] | 169 | 471
CSCC[C@@H](CC(=O)N[C@H]1CCC[C@@H]1C(=O)N[C@H]1CCC[C@@H]1C(=O)N[C@@H](CCCCN)CC(=O)N[C@H]1CCC[C@@H]1C(=O)N[C@H]1CCC[C@@H]1C(N)=O)NC(=O)[C@H]1CCC[C@@H]1NC(=O)[C@H]1CCC[C@@H]1N [H12 MK] | 172 | 78
CSCC[C@@H](CC(=O)N[C@H]1CCC[C@@H]1C(=O)N[C@H]1CCC[C@@H]1C(N)=O)NC(=O)[C@H]1CCC[C@@H]1NC(=O)[C@H]1CCC[C@@H]1NC(=O)C[C@H](CCSC)NC(=O)[C@H]1CCC[C@@H]1NC(=O)[C@H]1CCC[C@@H]1N [H12 MM] | 364 | 166
CSCC[C@@H](CC(=O)N[C@H]1CCC[C@@H]1C(=O)N[C@H]1CCC[C@@H]1C(=O)N[C@@H](CCC(N)=O)CC(=O)N[C@H]1CCC[C@@H]1C(=O)N[C@H]1CCC[C@@H]1C(N)=O)NC(=O)[C@H]1CCC[C@@H]1NC(=O)[C@H]1CCC[C@@H]1N [H12 MQ] | 173 | 192
CSCC[C@@H](CC(=O)N[C@H]1CCC[C@@H]1C(=O)N[C@H]1CCC[C@@H]1C(=O)N[C@@H](CO)CC(=O)N[C@H]1CCC[C@@H]1C(=O)N[C@H]1CCC[C@@H]1C(N)=O)NC(=O)[C@H]1CCC[C@@H]1NC(=O)[C@H]1CCC[C@@H]1N [H12 MS] | 224 | 215
CSCC[C@@H](CC(=O)N[C@H]1CCC[C@@H]1C(=O)N[C@H]1CCC[C@@H]1C(=O)N[C@H](CC(=O)N[C@H]1CCC[C@@H]1C(=O)N[C@H]1CCC[C@@H]1C(N)=O)[C@@H](C)O)NC(=O)[C@H]1CCC[C@@H]1NC(=O)[C@H]1CCC[C@@H]1N [H12 MT] | 169 | 162
C[C@@H](CC(=O)N[C@H]1CCC[C@@H]1C(=O)N[C@H]1CCC[C@@H]1C(N)=O)NC(=O)[C@H]1CCC[C@@H]1NC(=O)[C@H]1CCC[C@@H]1NC(=O)C[C@H](CCCNC(=N)N)NC(=O)[C@H]1CCC[C@@H]1NC(=O)[C@H]1CCC[C@@H]1N [H12 RA] | 485 | 205
C[C@@H](O)[C@@H](CC(=O)N[C@H]1CCC[C@@H]1C(=O)N[C@H]1CCC[C@@H]1C(N)=O)NC(=O)[C@H]1CCC[C@@H]1NC(=O)[C@H]1CCC[C@@H]1NC(=O)C[C@H](CCCNC(=N)N)NC(=O)[C@H]1CCC[C@@H]1NC(=O)[C@H]1CCC[C@@H]1N [H12 RT] | 213 | 133
CSCC[C@@H](CC(=O)N[C@H]1CCC[C@@H]1C(=O)N[C@H]1CCC[C@@H]1C(N)=O)NC(=O)[C@H]1CCC[C@@H]1NC(=O)[C@H]1CCC[C@@H]1NC(=O)C[C@@H](NC(=O)[C@H]1CCC[C@@H]1NC(=O)[C@H]1CCC[C@@H]1N)C(C)C [H12 VM] | 459 | 303
CC(C)[C@@H](CC(=O)N[C@H]1CCC[C@@H]1C(=O)N[C@H]1CCC[C@@H]1C(=O)N[C@@H](CCCNC(=N)N)CC(=O)N[C@H]1CCC[C@@H]1C(=O)N[C@H]1CCC[C@@H]1C(N)=O)NC(=O)[C@H]1CCC[C@@H]1NC(=O)[C@H]1CCC[C@@H]1N [H12 VR] | 234 | 118
NC(=O)[C@H]1CCC[C@@H]1NC(=O)[C@H]1CCC[C@@H]1NC(=O)C[C@H](CCC(=O)O)NC(=O)[C@H]1CCC[C@@H]1NC(=O)[C@H]1CCC[C@@H]1NC(=O)C[C@H](Cc1c[nH]c2ccccc12)NC(=O)[C@H]1CCC[C@@H]1NC(=O)[C@H]1CCC[C@@H]1N [H12 WE] | 256 | 229
NC(=O)CC[C@@H](CC(=O)N[C@H]1CCC[C@@H]1C(=O)N[C@H]1CCC[C@@H]1C(N)=O)NC(=O)[C@H]1CCC[C@@H]1NC(=O)[C@H]1CCC[C@@H]1NC(=O)C[C@H](Cc1c[nH]c2ccccc12)NC(=O)[C@H]1CCC[C@@H]1NC(=O)[C@H]1CCC[C@@H]1N [H12 WQ] | 304 | 53
C[C@@H](CC(=O)N[C@H]1CCC[C@@H]1C(=O)N[C@H]1CCC[C@@H]1C(N)=O)NC(=O)[C@H]1CCC[C@@H]1NC(=O)[C@H]1CCC[C@@H]1NC(=O)C[C@H](Cc1ccc(O)cc1)NC(=O)[C@H]1CCC[C@@H]1NC(=O)[C@H]1CCC[C@@H]1N [H12 YA] | 222 | 95
NC(=O)[C@H]1CCC[C@@H]1NC(=O)[C@H]1CCC[C@@H]1NC(=O)C[C@H](CC(=O)O)NC(=O)[C@H]1CCC[C@@H]1NC(=O)[C@H]1CCC[C@@H]1NC(=O)C[C@H](Cc1ccc(O)cc1)NC(=O)[C@H]1CCC[C@@H]1NC(=O)[C@H]1CCC[C@@H]1N [H12 YD] | 205 | 430
NC(=O)CC[C@@H](CC(=O)N[C@H]1CCC[C@@H]1C(=O)N[C@H]1CCC[C@@H]1C(N)=O)NC(=O)[C@H]1CCC[C@@H]1NC(=O)[C@H]1CCC[C@@H]1NC(=O)C[C@H](Cc1ccc(O)cc1)NC(=O)[C@H]1CCC[C@@H]1NC(=O)[C@H]1CCC[C@@H]1N [H12 YQ] | 176 | 222
N=C(N)NCCC[C@@H](CC(=O)N[C@H]1CCC[C@@H]1C(=O)N[C@H]1CCC[C@@H]1C(N)=O)NC(=O)[C@H]1CCC[C@@H]1NC(=O)[C@H]1CCC[C@@H]1NC(=O)C[C@H](Cc1ccc(O)cc1)NC(=O)[C@H]1CCC[C@@H]1NC(=O)[C@H]1CCC[C@@H]1N [H12 YR] | 61 | 65
NC(=O)[C@H]1CCC[C@@H]1NC(=O)[C@H]1CCC[C@@H]1NC(=O)C[C@H](CO)NC(=O)[C@H]1CCC[C@@H]1NC(=O)[C@H]1CCC[C@@H]1NC(=O)C[C@H](Cc1ccc(O)cc1)NC(=O)[C@H]1CCC[C@@H]1NC(=O)[C@H]1CCC[C@@H]1N [H12 YS] | 194 | 195

Further molecules by falling Kd (Gal-1), results first:

Kd (Gal-1) [µM] | Kd (S100B) [µM] | Compound
439 | 277 | CC(C)[C@@H](CC(=O)N[C@H]1CCC[C@@H]1C(=O)N[C@H]1CCC[C@@H]1C(N)=O)NC(=O)[C@H]1CCC[C@@H]1NC(=O)[C@H]1CCC[C@@H]1NC(=O)C[C@@H](NC(=O)[C@H]1CCC[C@@H]1NC(=O)[C@H]1CCC[C@@H]1N)C(C)C [H12 VV]
431 | 321 | N=C(N)NCCC[C@@H](CC(=O)N[C@H]1CCC[C@@H]1C(=O)N[C@H]1CCC[C@@H]1C(N)=O)NC(=O)[C@H]1CCC[C@@H]1NC(=O)[C@H]1CCC[C@@H]1NC(=O)C[C@H](CCC(N)=O)NC(=O)[C@H]1CCC[C@@H]1NC(=O)[C@H]1CCC[C@@H]1N [H12 QR]
430 | 185 | CC(C)[C@@H](CC(=O)N[C@H]1CCC[C@@H]1C(=O)N[C@H]1CCC[C@@H]1C(=O)N[C@@H](CCCCN)CC(=O)N[C@H]1CCC[C@@H]1C(=O)N[C@H]1CCC[C@@H]1C(N)=O)NC(=O)[C@H]1CCC[C@@H]1NC(=O)[C@H]1CCC[C@@H]1N [H12 VK]
402 | 123 | N=C(N)NCCC[C@@H](CC(=O)N[C@H]1CCC[C@@H]1C(=O)N[C@H]1CCC[C@@H]1C(N)=O)NC(=O)[C@H]1CCC[C@@H]1NC(=O)[C@H]1CCC[C@@H]1NC(=O)C[C@H](CO)NC(=O)[C@H]1CCC[C@@H]1NC(=O)[C@H]1CCC[C@@H]1N [H12 SR]
300 | 251 | C[C@@H](O)[C@@H](CC(=O)N[C@H]1CCC[C@@H]1C(=O)N[C@H]1CCC[C@@H]1C(N)=O)NC(=O)[C@H]1CCC[C@@H]1NC(=O)[C@H]1CCC[C@@H]1NC(=O)C[C@H](Cc1ccc(O)cc1)NC(=O)[C@H]1CCC[C@@H]1NC(=O)[C@H]1CCC[C@@H]1N [H12 YT]
297 | 199 | NC(=O)[C@H]1CCC[C@@H]1NC(=O)[C@H]1CCC[C@@H]1NC(=O)C[C@H](CC(=O)O)NC(=O)[C@H]1CCC[C@@H]1NC(=O)[C@H]1CCC[C@@H]1NC(=O)C[C@H](Cc1c[nH]c2ccccc12)NC(=O)[C@H]1CCC[C@@H]1NC(=O)[C@H]1CCC[C@@H]1N [H12 WD]
270 | 55 | NC(=O)C[C@@H](CC(=O)N[C@H]1CCC[C@@H]1C(=O)N[C@H]1CCC[C@@H]1C(N)=O)NC(=O)[C@H]1CCC[C@@H]1NC(=O)[C@H]1CCC[C@@H]1NC(=O)C[C@H](Cc1c[nH]c2ccccc12)NC(=O)[C@H]1CCC[C@@H]1NC(=O)[C@H]1CCC[C@@H]1N [H12 WN]
198 | 459 | NC(=O)[C@H]1CCC[C@@H]1NC(=O)[C@H]1CCC[C@@H]1NC(=O)C[C@H](CCC(=O)O)NC(=O)[C@H]1CCC[C@@H]1NC(=O)[C@H]1CCC[C@@H]1NC(=O)C[C@H](Cc1ccc(O)cc1)NC(=O)[C@H]1CCC[C@@H]1NC(=O)[C@H]1CCC[C@@H]1N [H12 YE]
195 | 177 | CSCC[C@@H](CC(=O)N[C@H]1CCC[C@@H]1C(=O)N[C@H]1CCC[C@@H]1C(=O)N[C@@H](CC(N)=O)CC(=O)N[C@H]1CCC[C@@H]1C(=O)N[C@H]1CCC[C@@H]1C(N)=O)NC(=O)[C@H]1CCC[C@@H]1NC(=O)[C@H]1CCC[C@@H]1N [H12 MN]
181 | 237 | NC(=O)C[C@@H](CC(=O)N[C@H]1CCC[C@@H]1C(=O)N[C@H]1CCC[C@@H]1C(N)=O)NC(=O)[C@H]1CCC[C@@H]1NC(=O)[C@H]1CCC[C@@H]1NC(=O)C[C@H](Cc1ccc(O)cc1)NC(=O)[C@H]1CCC[C@@H]1NC(=O)[C@H]1CCC[C@@H]1N [H12 YN]
180 | 417 | CSCC[C@@H](CC(=O)N[C@H]1CCC[C@@H]1C(=O)N[C@H]1CCC[C@@H]1C(=O)N[C@@H](CCC(=O)O)CC(=O)N[C@H]1CCC[C@@H]1C(=O)N[C@H]1CCC[C@@H]1C(N)=O)NC(=O)[C@H]1CCC[C@@H]1NC(=O)[C@H]1CCC[C@@H]1N [H12 ME]
